ChEMBL document CHEMBL1155011, “Structure-activity relationships of the cycloalkanol ethylamine scaffold: discovery of selective norepinephrine reuptake inhibitors” (J Med Chem, 2008)

Tests used:
[1] = biological target: T1, Sodium-dependent serotonin transporter (Homo sapiens, UniProt P31645); assay type: cell-based, JAR
Target sequence in this assay (P31645 whole entry): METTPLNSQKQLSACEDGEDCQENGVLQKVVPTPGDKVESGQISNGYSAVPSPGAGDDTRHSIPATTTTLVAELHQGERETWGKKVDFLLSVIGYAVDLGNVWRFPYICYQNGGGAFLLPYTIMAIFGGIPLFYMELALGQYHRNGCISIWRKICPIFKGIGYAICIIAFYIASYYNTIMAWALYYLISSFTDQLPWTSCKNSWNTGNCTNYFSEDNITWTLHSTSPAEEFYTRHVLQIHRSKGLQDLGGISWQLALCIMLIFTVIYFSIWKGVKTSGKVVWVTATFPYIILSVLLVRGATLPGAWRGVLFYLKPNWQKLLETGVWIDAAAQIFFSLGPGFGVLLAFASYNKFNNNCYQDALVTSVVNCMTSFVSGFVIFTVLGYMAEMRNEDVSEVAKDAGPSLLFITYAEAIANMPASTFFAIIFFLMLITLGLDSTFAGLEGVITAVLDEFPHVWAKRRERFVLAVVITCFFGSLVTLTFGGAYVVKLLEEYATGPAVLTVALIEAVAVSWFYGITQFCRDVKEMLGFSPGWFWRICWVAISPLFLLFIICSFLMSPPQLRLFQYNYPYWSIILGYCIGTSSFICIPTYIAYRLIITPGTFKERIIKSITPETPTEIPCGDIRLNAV

[2] = biological target: T2, Sodium-dependent noradrenaline transporter (Homo sapiens, UniProt P23975)
[3] = biological target: T3, Sodium-dependent dopamine transporter (Homo sapiens, UniProt Q01959); assay: biochemical
T3 sequence (Q01959 whole entry): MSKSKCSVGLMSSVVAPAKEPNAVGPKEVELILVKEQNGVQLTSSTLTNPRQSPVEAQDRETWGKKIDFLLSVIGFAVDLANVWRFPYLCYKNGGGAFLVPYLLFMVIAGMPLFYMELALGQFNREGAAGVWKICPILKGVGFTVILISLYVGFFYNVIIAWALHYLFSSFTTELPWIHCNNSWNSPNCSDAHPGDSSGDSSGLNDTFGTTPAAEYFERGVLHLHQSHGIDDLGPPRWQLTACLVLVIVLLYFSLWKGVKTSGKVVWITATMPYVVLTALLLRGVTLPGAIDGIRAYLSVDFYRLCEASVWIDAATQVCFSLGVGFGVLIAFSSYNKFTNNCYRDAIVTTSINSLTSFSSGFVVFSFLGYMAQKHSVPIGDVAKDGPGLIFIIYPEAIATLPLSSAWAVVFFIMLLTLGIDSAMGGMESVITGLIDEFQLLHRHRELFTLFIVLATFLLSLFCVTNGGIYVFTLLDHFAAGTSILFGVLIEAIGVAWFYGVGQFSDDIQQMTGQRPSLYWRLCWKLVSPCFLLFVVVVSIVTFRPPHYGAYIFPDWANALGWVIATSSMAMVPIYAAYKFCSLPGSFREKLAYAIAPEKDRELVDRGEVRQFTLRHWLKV

[4] = biological target: T2, Sodium-dependent noradrenaline transporter; assay: biochemical
Description: Displacement of [3H]nisoxetine from human norepinephrine transporter expressed in MDCK-Net6 cells

[5] = biological target: T1, Sodium-dependent serotonin transporter; assay: Inhibition of 5HT uptake at human SERT expressed in human JAR cells at 1000 nM; assay type: cell-based
Target sequence in this assay (P31645 whole entry, looked up): as the sequence (P31645 whole entry) above

[6] = biological target: T3, Sodium-dependent dopamine transporter; assay: Displacement of [3H]WIN-35428 from human recombinant dopamine transporter expressed in CHO cells at 1000 nM; assay type: cell-based
Transporter = Transporter (Rattus norvegicus, UniProt Q63380)
Transporter, sequence (Q63380 whole entry): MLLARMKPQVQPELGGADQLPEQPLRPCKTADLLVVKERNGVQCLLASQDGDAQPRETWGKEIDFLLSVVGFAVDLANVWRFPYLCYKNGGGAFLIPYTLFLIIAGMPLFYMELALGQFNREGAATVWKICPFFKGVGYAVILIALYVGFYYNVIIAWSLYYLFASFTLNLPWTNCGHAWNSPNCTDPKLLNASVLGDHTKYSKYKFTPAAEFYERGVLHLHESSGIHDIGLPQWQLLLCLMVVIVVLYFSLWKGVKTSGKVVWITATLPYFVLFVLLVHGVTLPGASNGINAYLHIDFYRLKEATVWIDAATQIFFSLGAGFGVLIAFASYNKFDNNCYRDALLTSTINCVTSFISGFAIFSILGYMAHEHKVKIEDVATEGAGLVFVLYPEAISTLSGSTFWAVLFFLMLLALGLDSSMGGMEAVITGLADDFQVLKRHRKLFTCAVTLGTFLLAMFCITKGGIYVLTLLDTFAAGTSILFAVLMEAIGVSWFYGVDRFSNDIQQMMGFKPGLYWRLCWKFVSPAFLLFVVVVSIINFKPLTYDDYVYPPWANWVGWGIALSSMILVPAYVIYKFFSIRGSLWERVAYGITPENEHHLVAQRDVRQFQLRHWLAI
Description: Inhibition of norepinephrine uptake at rat brain norepinephrine transporter

Homo sapiens = organism: Homo sapiens; assay: Selectivity ratio of IC50 for human NET over IC50 for human SERT
[7] = biological target: T2, Sodium-dependent noradrenaline transporter; assay: Inhibition of norepinephrine uptake at human norepinephrine transporter expressed in MDCK-Net6 cells at 1000 nM; assay type: cell-based

T2 sequence (P23975 whole entry): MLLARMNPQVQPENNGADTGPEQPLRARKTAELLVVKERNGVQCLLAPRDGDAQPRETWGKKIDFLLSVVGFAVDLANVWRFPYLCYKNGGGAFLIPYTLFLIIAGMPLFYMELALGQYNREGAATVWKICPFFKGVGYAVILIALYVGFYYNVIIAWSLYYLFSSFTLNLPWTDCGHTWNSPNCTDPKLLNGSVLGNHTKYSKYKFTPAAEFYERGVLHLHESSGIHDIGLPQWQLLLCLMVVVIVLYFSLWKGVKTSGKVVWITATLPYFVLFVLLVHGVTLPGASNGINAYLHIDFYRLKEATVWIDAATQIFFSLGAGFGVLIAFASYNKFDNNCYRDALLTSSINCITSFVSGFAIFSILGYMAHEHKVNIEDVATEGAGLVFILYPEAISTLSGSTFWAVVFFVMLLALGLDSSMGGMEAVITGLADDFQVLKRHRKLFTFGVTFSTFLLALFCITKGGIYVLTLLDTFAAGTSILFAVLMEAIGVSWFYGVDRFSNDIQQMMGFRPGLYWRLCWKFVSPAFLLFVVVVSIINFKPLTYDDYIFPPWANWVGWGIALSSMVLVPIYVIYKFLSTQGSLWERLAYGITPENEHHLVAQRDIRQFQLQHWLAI

| Structure (SMILES) | IC50 [1] [µM] | IC50 [2] [µM] | Ki [3] [µM] | Ki [4] [µM] | inhibition [5] [%] | Activity [6] [%] | IC50 (Transporter) [µM] | Ratio IC50 (Homo sapiens) | inhibition [7] [%] |
| --- | --- | --- | --- | --- | --- | --- | --- | --- | --- |
| OC1([C@@H](CN2CCNCC2)c2cccc(Cl)c2)CCCCC1 | 6.1 | 0.54 | 0.34 | 0.214 | – | – | – | – | – |
| OC1(C(CN2CCNCC2)c2ccc(F)cc2)CCCCC1 (configuration not stated) | – | 1.5 | – | 1.03 | 29 | 22 | – | – | – |
| CN(C)CC(c1ccc(Cl)cc1)C1(O)CCCCC1 (configuration not stated) | 0.123 | 0.12 | – | 0.249 | – | 23 | 0.3 | 1 | – |
| COc1ccc(C(CN2CCNCC2)C2(O)CCCCC2)cc1 (configuration not stated) | – | – | – | 0.519 | 24 | 9 | – | – | 34 |
| OC1([C@H](CN2CCNCC2)c2cccc(OC(F)(F)F)c2)CCCCC1 | – | 0.14 | – | 0.117 | 3 | 13 | – | – | – |
| COc1cccc(C(CN(C)C)C2(O)CCCCC2)c1 (configuration not stated) | 0.088 | 0.208 | – | 0.316 | – | 9 | 0.62 | 0.42 | – |
| CN(C)C[C@H](c1cccc(Cl)c1)C1(O)CCCCC1 | – | – | – | – | – | 0 | – | – | – |
| CN1CCN(C[C@H](c2cccc(Cl)c2)C2(O)CCCCC2)CC1 | – | 0.029 | 0.073 | 0.014 | 9 | – | – | – | – |
| OC1([C@@H](CN2CCNCC2)c2cccc(OC(F)(F)F)c2)CCCCC1 | – | 1.29 | – | 0.544 | 11 | 15 | – | – | – |
